Test results as given in PMC12040169 (PLOS Biology, 2025).

test: in vitro; conditions: human, hela cells, % viability

Point of comparison: `Cc1cc2c(o1)c1cnn(CC(=O)N(C)C)c(=O)c1n2C(C)C` [CBK284233], viability at 28.5 h, 10 µM 88.9%. Against it:
- CCNS(=O)(=O)c1ccc2c(c1)N(Cc1ccc(CO)o1)CC2 [CBK306158] — lower, 83.8%
- O=C(CCn1c(-c2cccnc2)cc2cccnc21)NC1CC1 [CBK282622] — higher, 95.9%
- CC1(C)CC(=O)c2cnc3ncnn3c2C1 [CBK007345] — higher, 110%
- COc1ccc(-n2c(C)c(C#N)c3cc(Br)c(O)c(Br)c32)cc1 [CBK101113] — higher, 91.6%
- CC(=O)c1ccc(NC(=O)[C@@]2(CC(=O)O)CC(c3ccc(F)cc3)=NO2)cc1 [CBK286663] — lower, 85%
- O=S(=O)(Nc1ccc2c(ccn2Cc2ccccc2)c1)c1cc(C(F)(F)F)cc(C(F)(F)F)c1 [CBK159540] — higher, 94.7%
- CC(C(=O)NCCN1CCOCC1)N1c2cccc3cccc(c23)S1(=O)=O (stereo not shown) [CBK269911] — higher, 91.2%
- COc1ccc(-c2cc3n[nH]c(=O)n3c(C)n2)cc1 [CBK288439] — higher, 91.1%
- Cc1n[nH]cc1CN(C)c1cc([C@H]2C[C@@H](N)C2)nc(C2CC2)n1 [CBK307544] — higher, 110%
- O=C(/C=C/c1cccnc1)NCc1ccc(OC2CCNCC2)cc1 [CBK038945T] — lower, 88.7%
- CCN(CC)CCN(C)C1CCN(C)CC1 [CBK261917] — higher, 94.7%
- Nc1ncnc(NCCCc2ccccc2)c1[N+](=O)[O-] [CBK267261] — the same, 88.9%
- Cc1ccc(C(=O)N2CCC3(CC2)CNC(=O)c2ccccc2O3)o1 [CBK285328] — lower, 88.3%
- CC(=O)c1ccc(S(=O)(=O)N2CCCCC2CNC(=O)c2ccco2)cc1 (stereo not shown) [CBK051472] — higher, 103%
- COc1ccccc1NC(=O)CCCC(=O)O [CBK261323] — higher, 101%
- CCCn1c(SCC(=O)Nc2scc(CC(C)C)c2C(=O)OCC)n[nH]c1=O [CBK295615] — higher, 98.1%
- CCOc1ccc2nc(NS(=O)(=O)c3cccc(C(=O)O)c3)sc2c1 [CBK161137] — higher, 102%
- CC(Sc1ccccc1)C(=O)NC(C)(C)C (stereo not shown) [CBK026610] — higher, 116%
- Nc1ncc(-c2ccsc2)nc1-c1ccc(O)cc1 [CBK115631] — higher, 100%
- C=CCNC(=O)C1CCN(c2nc3ccccc3n2CC)CC1 [CBK283920] — higher, 113%
- S=C(Nc1ccccc1)c1ccccc1 [CBK005397] — higher, 100%
- CS(=O)(=O)c1ccc(-c2ccc3c(c2)OCCN(C2CCN(C(=O)CC(F)(F)F)CC2)C3)cc1 [CBK169260] — higher, 90.8%
- Clc1ccc(COc2cc(N3CCCN(CC4CC4)CC3)ncn2)cc1Cl [CBK084070] — higher, 90.8%
- CN1C(=O)CC2(C1=O)C(=O)N(CC(=O)c1ccccc1)c1ccc(F)cc12 (stereo not shown) [CBK075420] — higher, 95.4%
- Cc1nc(C)c(C(=O)C2=C(O)C(=O)N(CCCN3CCOCC3)C2c2ccncc2)s1 (stereo not shown) [CBK235187] — higher, 97.3%
- COc1ccc2[nH]cc(CC(=O)N3CCCC4(CCN(C(=O)c5cc(F)c(F)cc5F)C4)C3)c2c1 (stereo not shown) [CBK131562] — lower, 88.6%
- COc1ccc(S(=O)(=O)N(CC(=O)Nc2ccc3c(c2)OCCO3)c2ccc(F)cc2)cc1 [CBK268584] — higher, 114%
- O=C(CCS(=O)(=O)c1cc(Cl)ccc1Cl)OCC(=O)c1ccccc1 [CBK261256] — higher, 90.1%
- COc1cccc(NC(=O)N2CCN3C(=O)[C@H](Cc4ccc(O)cc4)NC(=O)[C@@H]3C2)c1 [CBK289618] — higher, 99%
- Cc1cccc(C=C(Cl)c2nc3sc(C(=O)O)c(C)c3c(=O)[nH]2)c1 [CBK295626] — higher, 91.6%
- COC(=O)COc1ccc(S(=O)(=O)N2CCC(C(N)=O)CC2)cc1 [CBK265993] — higher, 96.7%
- COCCc1noc(CC2CCN(c3ncncc3C#N)CC2)n1 [CBK304178] — higher, 90.5%
- NC(=O)CSc1nnc(-c2cccnc2)n1Cc1ccccc1 [CBK268672] — higher, 99.2%
- O=[N+]([O-])c1ccc(CN2CCC(Oc3cncc(OCC4COc5ccccc5O4)n3)C2)cc1 (stereo not shown) [CBK084369] — higher, 99.3%
- COc1ccc(N(C)C(=O)c2ccc(Cn3nc(NC(=O)Cc4ccc5c(c4)OCO5)c4ccccc43)cc2)cc1 [CBK059530] — higher, 103%
- CCC(CN1CCCCC1)n1cncc1-c1cn(C)nc1C (stereo not shown) [CBK281460] — higher, 96.9%
- COc1ccc(Cl)cc1NC(=O)C1CN(S(=O)(=O)c2ccccc2)CCN1S(=O)(=O)c1ccccc1 (stereo not shown) [CBK264000] — higher, 93.3%
- CCC(C)(C)c1ccc(S(=O)(=O)NCCCN2CCCC2)cc1 [CBK044126] — higher, 95.8%
- CN(C)c1ccc(-c2[nH][nH]c(=O)c2CCCN)cc1 [CBK288406] — higher, 105%
- CC(=O)Nc1cccc(CN2CCCC(CO)C2)c1 (stereo not shown) [CBK305527] — higher, 91.9%
- CCC(=O)N1CCCc2cc(C(O)CN3CCN(c4cccc(OC)c4)CC3)ccc21 (stereo not shown) [CBK286476] — higher, 114%
- CCCC(=O)Nc1ccc(OCc2ncc(C(C)C)o2)c(C(C)=O)c1 [CBK305516] — higher, 100%
- Cc1ccccc1OCC(=O)Oc1ccc(-c2cnc3ccccc3n2)cc1 [CBK264703] — higher, 100%
- Cc1ccnc(NS(=O)(=O)c2ccc(NS(=O)(=O)c3ccc(F)cc3)cc2)n1 [CBK051024] — higher, 102%
- COc1ccc(C(=O)C2=C(O)C(=O)N(Cc3cccnc3)C2c2cccc([N+](=O)[O-])c2)cc1 (stereo not shown) [CBK264661] — higher, 99.5%
- Cn1nc(C2CCN(C(=O)Cc3ccsc3)CC2)c2cccnc21 [CBK284986] — higher, 101%
- CC(C)(C)C(=O)NCCn1nc(-c2cccs2)oc1=O [CBK282344] — higher, 110%
- CC(C)COC(=O)N1CCC2(CC1)CC(=O)N(Cc1ccc(S(C)(=O)=O)cc1)C2=O [CBK155948] — higher, 103%
- COc1ccccc1N(CC(O)CN1C(=O)NC(C)(C)C1=O)S(=O)(=O)c1ccc(C)cc1 (stereo not shown) [CBK263581] — higher, 99.4%
- O=C1NCC(C(=O)N2CCC3(CC2)CC(=O)c2cc(Br)ccc2O3)N1 (stereo not shown) [CBK156475] — lower, 87.7%
- Nc1nc2c(nc(Br)n2[C@H]2C[C@@H](O)[C@@H](CO)O2)c(=O)[nH]1 [CBK201333] — higher, 108%
- COc1ccc(S(=O)(=O)N(C)CC(=O)N2CCN(C)CC2)cc1C [CBK268105] — higher, 100%
- CCn1nc(C)c(CN(C)Cc2nc3ccccc3[nH]2)c1C [CBK282126] — higher, 93.9%
- CC(C)NC(=O)NC[C@H]1C[C@@H]2CCN1C[C@@H]2c1cc(C2CCCC2)nn1C [CBK288744] — higher, 96.5%
- Fc1ccc2[nH]c3c(c2c1)CCN1C(c2cccnc2)N2CCC31CC2 (stereo not shown) [CBK284436] — lower, 87.6%
- CC(=O)Nc1ccc(C(=O)CSc2nnc(-c3ccncc3)o2)cc1 [CBK266349] — higher, 105%
- Cc1[nH]c2ccccc2c1/C=C1/SC(=S)N(CC(=O)O)C1=O [CBK262220] — higher, 118%
- CC(=O)N1CCN(Cc2nc3cc(NC(=O)Cn4nc(C)c5ccccc5c4=O)ccc3n2C)CC1 [CBK267989] — lower, 87.8%
- O=c1[nH]cccc1-c1noc(-c2cnccn2)n1 [CBK288538] — higher, 90%
- COc1cc(Nc2cncc(-c3ccc(O)cc3)n2)c(Cl)cc1C(=O)NCCCN(C)C [CBK122651] — lower, 81.1%
- COc1cccc(/C=C\c2onc(C)c2[N+](=O)[O-])c1OCC(=O)O [CBK269063] — higher, 104%
- O=Cc1cn(CCC(=O)O)nc1-c1cc2ccccc2o1 [CBK265376] — higher, 90%
- COc1ccc(N2CCN(CC(=O)Nc3ccc(Cl)cc3C(=O)c3ccccc3)CC2)cc1 [CBK265743] — higher, 90.7%
- COc1cccc(NC(=O)O[C@@H]2CC[C@]3(C)C(CC[C@H]4OC(=O)C[C@H]43)[C@]2(C)CO)c1 (stereo partly shown) [CBK289576] — higher, 95.2%
- O=C(NCc1ccccc1)c1cnc2n(c1=O)CCS2 [CBK287371] — lower, 79.7%
- c1ccc2c(c1)OCC(COc1nccc(N3CCCNCC3)n1)O2 (stereo not shown) [CBK085471] — higher, 89.8%
- COc1cccc(CNc2nccnc2-c2ccc(S(C)(=O)=O)cc2)c1OC [CBK037452] — higher, 104%
- Cc1nccn1CCC(=O)N1CCc2[nH]c3ccccc3c2C1 [CBK281882] — higher, 111%
- C[C@H](Nc1nc(-c2cccc(C(=O)NCCN(C)C)c2)cnc1N)c1ccccc1 [CBK063714] — higher, 112%
- O=C(Cc1ccc(Cl)cc1)N1CCc2c([nH]c3ccccc23)C12CCN(Cc1ccc(F)cc1)C2 (stereo not shown) [CBK059453] — higher, 90.6%
- CCn1cc(CN(C)Cc2csc(C)n2)c2cc(C(=O)O)ncc21 [CBK306950] — higher, 116%
- CCC(NC(=O)c1csc2c1CCCC2)c1ccccc1 (stereo not shown) [CBK059006] — higher, 108%
- O=C(CSc1nnc(-c2ccco2)o1)Nc1cccc2nsnc12 [CBK268006] — higher, 93.2%
- Cc1cccc([C@@H]2CN(Cc3ccccc3)C[C@]23CCCC(=O)N3)n1 [CBK283350] — higher, 107%
- Cn1c(N2CC[C@H](O)C2)nc2cc(C(=O)NCc3ccsc3)ccc21 [CBK307471] — lower, 87.5%
- CC1(C)CC(NC(=O)c2cccc([N+](=O)[O-])c2)CC(C)(C)N1 [CBK262952C] — higher, 99.8%
- O=C(Cc1cn2ccsc2n1)NCCS(=O)(=O)N1CCc2ccccc21 [CBK304282] — lower, 75.4%
- C[C@@H](Nc1nc(-c2cccc3ncccc23)cnc1N)c1ccccc1 [CBK063755] — higher, 107%
- Cn1c(-c2ccccc2)cnc1NC(=O)C1CN(S(=O)(=O)c2ccc(F)cc2)C1 [CBK285945] — higher, 98.4%
- CN(C)CCNC(=O)Cc1csc(-c2ccc(Cl)cc2)n1 [CBK107299] — higher, 96.2%
- CC(=O)c1cccc(NC(=O)CCn2[nH]c(=O)ccc2=O)c1 [CBK306094] — higher, 91.4%
- COc1ccc(-c2c(C)nn(-c3ccc(Cl)nn3)c2C)c(C(=O)O)c1 [CBK005774] — higher, 107%
- CCc1nc2ccc(C(=O)Nc3ccc(Cl)c(Cl)c3)cn2c1N(C)Cc1ccc(OC)cc1 [CBK145585] — higher, 93.6%

same assay, conditions: human, hela cells, % viability, bulk resorufin, single well

`COc1cc(CNC(=O)c2cccc(-c3ccc4c(c3)COC3(CCNCC3)O4)c2)cc(OC)c1OC` [CBK110087] showed a viability at 28.5 h, 10 µM of 87.8%.
